Experimental data as given in patent publication US10336687B2, “Selected amide of Y-hydroxybutyric acid and uses thereof in the treatment of alcohol misuse” (priority 2015, dated 2019).
Where two headings read alike, the source gives them in different places. Marks after values point to notes of the source that are not given here.

Columns and labels:
[1] = test system: Sardinian alcohol preferring (sP) rats; assay: Maintenance of alcohol intake, 2-bottle free choice regimen between alcohol (10% v/v) and water; format: in vivo, rat; conditions: acute oral administration
From the text: Anti-alcohol profile of ACGET61 in Sardinian alcohol preferring (sP) rats Sardinian alcohol preferring (sP) rats represents one of the few rat lines selectively bred worldwide for high ethanol preference and consumption (Colombo et al., 2006) and are utilized in multiple experimental procedures validated for the evaluation of different aspects of alcohol drinking. These experimental procedures include Maintenance of alcohol intake, and Operant self-administration of alcohol.
In this procedure sP rats were exposed to a 2-bottle free choice regimen between alcohol (10% v/v) and water. Under this condition, the animals can choose between a bottle containing the alcohol solution and a bottle containing water, and voluntarily consume about 6 g/kg/day of alcohol, with a preference for alcohol of about 90%.

[2] = test system: Sardinian alcohol preferring (sP) rats; assay: Operant self-administration of alcohol, fixed ratio FR4; format: in vivo, rat
From the text: (§1) In these procedures sP rats were trained to self-administer alcohol or sucrose by pressing a lever, and the amount of work (lever pressing) requested to obtain alcohol, varied according with the aim of the single schedule of reinforcement, Fixed ratio (FR) or Progressive ratio (PR).
(§2) Sucrose solution (3% w/v) was systematically employed in these experiments as alternative reinforcer, in order to assess if test compounds exert a selective effect on the alcohol solution (15% v/v) self-administration.
(§3) In the FR the rat obtain alcohol or sucrose in response to four consecutive lever pressing (FR4), while in the PR the number of lever pressing necessary to obtain alcohol or sucrose increased progressively till the rat stop pressing the lever (Break point; BP). Each FR4 or PR/BP session lasted 30 minutes.

[3] = test system: Sardinian alcohol preferring (sP) rats; assay: Operant self-administration of alcohol, progressive ratio / break point (PR/BP); format: in vivo, rat; conditions: for Effective Doses mg/kg: PR/BP model, sP rats
From the text: as §1, §2, §3

hippocampal slices [4] = assay: Basal GABA and glutamate outflow in hippocampal slices; format: cell-based, rat; conditions: 10 and 100 μM
Description: (§4) Based on previous results obtained for GET 73, which influences the aminoacidergic neurotransmission in the rat hippocampus, probably through a complex modulation of the metabotropic glutamate receptors subtype 5 (mGluR5) (Beggiato et al., 2013; Ferraro et al., 2011, 2013) the positional isomer ACGET61 was evaluated in vitro in hippocampal slices, by measuring GABA and glutamate levels in different experimental conditions.

hippocampal slices [5] = assay: K+-evoked GABA and glutamate outflow in KCl stimulated hippocampal slices; format: cell-based, rat
Description: as §4
Additional studies aimed at exploring the effect of ACGET61 (10 pM-10 μM) in KCl stimulated hippocampal slices were carried out.

mGluR5 [6] = target: T1, mGluR5 (Rattus norvegicus, UniProt P31424); assay: Increase in K+-evoked glutamate outflow induced by the mGluR5 receptor agonist CHPG in hippocampal slices; format: cell-based; conditions: CHPG 100 μM
T1 construct: from tissue; host or cells: hippocampal slices
T1 sequence (P31424 21-1203): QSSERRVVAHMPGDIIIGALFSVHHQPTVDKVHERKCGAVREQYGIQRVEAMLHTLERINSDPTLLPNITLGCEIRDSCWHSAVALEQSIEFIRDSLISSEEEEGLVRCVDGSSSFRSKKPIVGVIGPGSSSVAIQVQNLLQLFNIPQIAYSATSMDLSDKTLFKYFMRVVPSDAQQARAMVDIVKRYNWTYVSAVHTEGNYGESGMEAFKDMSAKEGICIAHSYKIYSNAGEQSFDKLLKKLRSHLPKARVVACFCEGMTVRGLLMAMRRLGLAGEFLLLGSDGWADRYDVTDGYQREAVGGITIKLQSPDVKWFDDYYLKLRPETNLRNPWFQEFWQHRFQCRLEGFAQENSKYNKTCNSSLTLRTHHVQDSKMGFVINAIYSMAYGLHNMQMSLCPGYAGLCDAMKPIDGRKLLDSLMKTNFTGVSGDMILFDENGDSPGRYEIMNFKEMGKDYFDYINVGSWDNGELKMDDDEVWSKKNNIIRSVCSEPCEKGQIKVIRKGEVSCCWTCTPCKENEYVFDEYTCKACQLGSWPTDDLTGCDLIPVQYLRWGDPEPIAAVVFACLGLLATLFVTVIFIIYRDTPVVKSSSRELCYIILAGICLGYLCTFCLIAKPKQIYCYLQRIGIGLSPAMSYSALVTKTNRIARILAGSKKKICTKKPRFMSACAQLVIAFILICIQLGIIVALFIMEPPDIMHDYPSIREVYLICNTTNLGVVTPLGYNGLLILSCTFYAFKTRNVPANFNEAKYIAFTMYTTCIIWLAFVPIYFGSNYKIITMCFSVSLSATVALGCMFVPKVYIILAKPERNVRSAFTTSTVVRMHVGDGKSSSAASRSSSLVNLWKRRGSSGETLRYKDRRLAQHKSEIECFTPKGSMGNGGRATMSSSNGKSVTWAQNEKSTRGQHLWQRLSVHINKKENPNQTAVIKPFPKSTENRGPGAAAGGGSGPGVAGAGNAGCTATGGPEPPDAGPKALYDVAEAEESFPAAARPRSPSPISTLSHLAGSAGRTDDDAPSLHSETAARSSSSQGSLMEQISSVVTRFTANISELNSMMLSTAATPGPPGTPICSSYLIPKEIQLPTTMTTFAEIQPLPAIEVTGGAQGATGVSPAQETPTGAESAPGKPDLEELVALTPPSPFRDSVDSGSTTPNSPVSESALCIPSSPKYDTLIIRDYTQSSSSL
Description: as §4
The interaction of ACGET61 with the mGluR5 agonist CHPG was explored in KCl stimulated hippocampal slices. […] Specifically, FIG. 5—KCl stimulated Hippocampal slices—K^+ evoked glutamate outflow. The effect of ACGET61 300 pM on the increase in glutamate outflow induced by CHPG 100 μM. ** p<0.01 vs Control; ^∘ p<0.05 vs ACGET61+CHPG.

[7] = test system: primary cultures of rat hippocampal neurons; format: cell-based; conditions: for Minimum effective concentration for neuroprotective effects: hippocampal neurons chronically exposed to ethanol, cell viability and ROS production
From the text: (§5) The neurotoxic effects of alcohol have been well documented, both in animals and humans, and the hippocampus represents a brain area particular sensitive to the detrimental effects of alcohol. Different preclinical models have been employed for studying the neurotoxic effects of alcohol. One of these models consists in exposing organotypic hippocampal cultures to alcohol, which exerts various effects, including a reduction in cell viability, and an increase in reactive oxygen species (ROS).
(§6) Briefly, primary cultures of rat hippocampal neurons were chronically exposed to ethanol (75 mM; 4 days) and the neuroprotective effects of ACGET61 were assessed by evaluating cell viability (MTT assay), and reactive oxygen species production (rhodamine 123 fluorescence).

[8] = test system: primary cultures of rat hippocampal neurons; format: cell-based
From the text: as §5, §6
Ethanol exposure induced a significant increase in the ROS production (p<0.001), measured by the fluorescence emission of rhodamine 123.

mGluR5 [9] = target: T1, mGluR5; conditions: GET73, same model; cited from earlier work
[10] = test system: Sardinian alcohol preferring (sP) rats; conditions: 2-bottle free choice model; cited from earlier work
[11] = cited from earlier work
[12] = FR4 model, sP rats, GET 73 tested up to 50
[13] = 0.01-10 μM, cultures not exposed to ethanol

## COCCCC(=O)NCc1ccccc1C(F)(F)F [ACGET61, N-[(2-trifluoromethyl)benzyl]-4-methoxybutyramide]
[1]; ACGET61, Maintenance model, sP rats
  Duration of effect: 24 h
[1]; 25 to 100 mg/kg
  Effect on water and food intake: without affecting water and food intake
[2]; 100 mg/kg, 30 min session, p<0.05 vs vehicle
  Effect on FR4 operant self-administration of alcohol (lever responses, alcohol and sucrose intake): selective reducing effect on the reinforcing properties of alcohol
[2]; [12]
  Effective Doses: 100 mg/kg
[3]; 50 and 100 mg/kg, PR, 30 min session
  Number of lever pressing and break point for alcohol: reduced
[3]; 50 and 100 mg/kg, PR, sucrose 3% w/v
  Response for sucrose: able to reduce also the response for sucrose
[3]; for alcohol and sucrose
  Effective Doses mg/kg: 50-100 * mg/kg
Hippocampal slices [4]
  Effect on basal release of GABA and glutamate: No effects
Hippocampal slices [5]; 100, 300, and 500 pM
  K+-evoked glutamate outflow: modest non significant reduction
Hippocampal slices [5]; concentrations between 10 nM and 10 μM
  Effect on K+-evoked GABA and glutamate outflow: did not exert overt effects
Hippocampal slices [5]; highest concentration (10 μM)
  K+-evoked GABA outflow: significant decrease
mGluR5 [6]; ACGET61 300 pM
  Effect on the increase in K+-evoked glutamate outflow exerted by CHPG: able to counteract, at least in part
mGluR5 [6]; KCl stimulated slices
  Concentration inhibiting CHPG-induced increase of glutamate in hippocampal slices: 300 pM
[7]; [13]
  Cellular viability, compound by itself: did not affect cellular viability
[7]; 0.1, 1, and 10 μM added 1 hour before and during ethanol 75 mM, 4 days, p<0.05 vs ethanol
  Cell viability in ethanol exposed cultures: prevented the ethanol-induced damage
[7]
  Minimum effective concentration for neuroprotective effects: 0.1 µM
[8]; [13]
  ROS production, compound by itself: did not affect ROS production
[8]; 0.1, 1, and 10 μM added 1 h before and during ethanol 75 mM, 4 days
  ROS production in ethanol exposed cultures: prevented the ethanol-induced increase of ROS production

## COCCCC(=O)NCc1ccc(C(F)(F)F)cc1 [GET 73, 4-methoxy-N-[[4-(trifluoromethyl)phenyl]methyl]-butanamide, reference compound]
[2]; [12]
  Effective Doses mg/kg: No effect
[2]; GET73, same model
  Effect in FR4 operant self-administration: did not demonstrate any effects
[3]; GET73, same model
  Effect on PR operant self-administration of alcohol: did not demonstrate any effects
[3]; PR, 50 mg/kg
  Sucrose intake: significant reduction
[3]; limited to sucrose
  Effective Doses mg/kg: 50 # mg/kg
[7]
  Minimum effective concentration for neuroprotective effects: 1 µM
mGluR5 [9]
  Concentration inhibiting CHPG-induced increase of glutamate in hippocampal slices: 500 nM

## O=C(O)CCCO [GHB, gamma-hydroxybutyric acid]
[10]
  Alcohol intake of sP rats: reduced

## NCC(CC(=O)O)c1ccc(Cl)cc1 (stereo not shown) [baclofen]
[10]
  Alcohol intake of sP rats: reduced

## O=C1CC[C@@]2(O)[C@H]3Cc4ccc(O)c5c4[C@@]2(CCN3CC2CC2)[C@H]1O5 [naltrexone]
[10]
  Alcohol intake of sP rats: reduced

## O=C(O)CCCO [sodium oxybate]
[11]; after oral administration
  Time to peak plasma concentration: 30 to 45 min
[11]; in vivo
  Bioavailability: about 30%
  Half-life: about 30 minutes
